Where “and” joins values, the source holds several entries; their conditions need not be identical. Equal entries are not always repeated. Inconclusive results and toxic doses are left out. No stated cut-off is given here; in the data, active means T/C of 150% or more; inactive means T/C below 125%.
Test system: L1210 leukemia ip in BDF1 mice, survival T/C
Test: NCI In Vivo Anticancer Drug Screen. Data for tumor model L1210 Leukemia (intraperitoneal) in B6D2F1 (BDF1) mice
Details: endpoint: mean survival time, higher = longer survival
Outline: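 Mice bearing the transplanted tumor received compound or vehicle. Survival of the treated group was divided by that of the vehicle-treated control group to give the ratio.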

[1] = dose: 100.0 mg/kg/injection, schedule: Q04DX002 (ip), vehicle: Klucel (hydroxypropylcellulose) (HPC)
[2] = dose: 200.0 mg/kg/injection, schedule: Q04DX002 (ip), vehicle: Klucel (hydroxypropylcellulose) (HPC)
[3] = dose: 400.0 mg/kg/injection, schedule: Q04DX002 (ip), vehicle: Klucel (hydroxypropylcellulose) (HPC)
[4] = dose: 100.0 mg/kg/injection, schedule: Q04DX003 (ip), vehicle: saline with Tween-80
[5] = dose: 200.0 mg/kg/injection, schedule: Q04DX003 (ip), vehicle: saline with Tween-80
[6] = dose: 400.0 mg/kg/injection, schedule: Q04DX003 (ip), vehicle: saline with Tween-80
[7] = dose: 100.0 mg/kg/injection, schedule: Q04DX003 (ip), vehicle: Klucel (hydroxypropylcellulose) (HPC)
[8] = dose: 200.0 mg/kg/injection, schedule: Q04DX003 (ip), vehicle: Klucel (hydroxypropylcellulose) (HPC)

Measured: T/C

O=[N+]([O-])c1ccc(N=Cc2ccccc2O)cc1
inactive: dose: 50.0 mg/kg/injection, schedule: Q01DX001 (sc), vehicle: olive oil, sesame oil, peanut oil 98 % of control | dose: 100.0 mg/kg/injection, schedule: Q01DX001 (sc), vehicle: olive oil, sesame oil, peanut oil 98 % of control | dose: 200.0 mg/kg/injection, schedule: Q01DX001 (sc), vehicle: olive oil, sesame oil, peanut oil 98 % of control | dose: 400.0 mg/kg/injection, schedule: Q01DX001 (sc), vehicle: olive oil, sesame oil, peanut oil 108 % of control

C=CCc1cc(Nc2c3ccc(Cl)cc3nc3ccc(OC)cc23)cc(CN(CC)CC)c1O
inactive: dose: 50.0 mg/kg/injection, schedule: Q04DX002 (ip), vehicle: saline 106 % of control | dose: 100.0 mg/kg/injection, schedule: Q04DX002 (ip), vehicle: saline 98 % of control | dose: 200.0 mg/kg/injection, schedule: Q04DX002 (ip), vehicle: saline 98 % of control

O=C(COc1cc(Cl)c(Cl)cc1Cl)Nc1ccc(Cl)cc1
inactive: [1] 103 % of control | [2] 106 % of control | [3] 103 % of control

CCOC(=O)NS(=O)(=O)[N+](CC)(CC)CC
inactive: dose: 100.0 mg/kg/injection, schedule: Q01DX001 (ip), vehicle: carboxymethylcellulose (CMC) 97 % of control | dose: 200.0 mg/kg/injection, schedule: Q01DX001 (ip), vehicle: carboxymethylcellulose (CMC) 97 % of control | dose: 400.0 mg/kg/injection, schedule: Q01DX001 (ip), vehicle: carboxymethylcellulose (CMC) 100 % of control

Nc1c(Br)cccc1C(=O)O
inactive: dose: 100.0 mg/kg/injection, schedule: Q01DX001 (ip), vehicle: saline 104 % of control | dose: 200.0 mg/kg/injection, schedule: Q01DX001 (ip), vehicle: saline 102 % of control | dose: 400.0 mg/kg/injection, schedule: Q01DX001 (ip), vehicle: saline 101 % of control

Cc1ccc(-n2ccnc2C)c(N=Cc2ccc(N(CCCl)CCCl)cc2C)c1
inactive: [1] 98 % of control | [2] 102 % of control | [3] 106 % of control

O=[N+]([O-])/C=C/c1ccccc1F
inactive: dose: 18.75 mg/kg/injection, schedule: Q04DX003 (ip), vehicle: Klucel (hydroxypropylcellulose) (HPC) 95 % of control | dose: 37.5 mg/kg/injection, schedule: Q04DX003 (ip), vehicle: Klucel (hydroxypropylcellulose) (HPC) 98 % of control | dose: 75.0 mg/kg/injection, schedule: Q04DX003 (ip), vehicle: Klucel (hydroxypropylcellulose) (HPC) 91 % of control

CC(=O)N1C(=O)NC(=O)C1(C)c1ccc(Cl)s1 (centres undefined)
inactive: dose: 100.0 mg/kg/injection, schedule: Q01DX009 (ip), vehicle: saline with Tween-80 96 % of control | [4] 100 % of control | dose: 200.0 mg/kg/injection, schedule: Q01DX009 (ip), vehicle: saline with Tween-80 103 % of control | [5] 97 % of control | dose: 400.0 mg/kg/injection, schedule: Q01DX009 (ip), vehicle: saline with Tween-80 91 % of control | [6] 88 % of control

NC(CSS(=O)(=O)O)=NCCCc1nc2ccccc2[nH]1
inactive: [1] 106 % of control | [2] 92 % of control | [3] 95 % of control

O=C(Nc1ccc(Br)cc1)Nc1ccccc1Cl
inactive: dose: 100.0 mg/kg/injection, schedule: Q04DX002 (ip), vehicle: saline + alcohol 100 % of control | dose: 200.0 mg/kg/injection, schedule: Q04DX002 (ip), vehicle: saline + alcohol 94 % of control | dose: 400.0 mg/kg/injection, schedule: Q04DX002 (ip), vehicle: saline + alcohol 96 % of control

CC(C)(C)c1ccc(OC(=O)Nc2ccc(O)c(C(=O)O)c2)cc1
inactive: dose: 100.0 mg/kg/injection, schedule: Q01DX001 (ip), vehicle: Klucel (hydroxypropylcellulose) (HPC) 115 % of control | dose: 100.0 mg/kg/injection, schedule: Q01DX009 (ip), vehicle: Klucel (hydroxypropylcellulose) (HPC) 94 % of control and 98 % of control | [1] 96 % of control and 118 % of control | [7] 96 % of control | dose: 200.0 mg/kg/injection, schedule: Q01DX009 (ip), vehicle: Klucel (hydroxypropylcellulose) (HPC) 94 % of control | [2] 92 % of control and 86 % of control | [8] 86 % of control

O=c1[nH]cnc2c1ncn2Cc1ccc([N+](=O)[O-])cc1
inactive: dose: 100.0 mg/kg/injection, schedule: Q01DX001 (ip), vehicle: other 96 % of control | [4] 102 % of control | dose: 200.0 mg/kg/injection, schedule: Q01DX001 (ip), vehicle: other 98 % of control | [5] 96 % of control | [6] 94 % of control

Cc1ccc(S(=O)(=O)N2CCC(=O)c3ccc(Cl)cc32)cc1
inactive: [7] 93 % of control | [8] 94 % of control | dose: 400.0 mg/kg/injection, schedule: Q04DX003 (ip), vehicle: Klucel (hydroxypropylcellulose) (HPC) 96 % of control
